In PubChem BioAssay AID330 (DTP/NCI, 2004):
Where “and” joins values, the source holds several entries; their conditions need not be identical. Equal values may be shown once. Toxic doses and inconclusive results are not listed. Peptide text beside a SMILES is read from it.

System: P388 leukemia ip, CD2F1 mice, survival T/C
Experiment: NCI In Vivo Anticancer Drug Screen. Data for tumor model P388 Leukemia (intraperitoneal) in CD2F1 (CDF1) mice
Settings: endpoint: median survival time, higher = longer survival
In short: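 Mice carrying the transplanted tumor received test compound or vehicle. Survival was recorded in each group, and the value is the treated-group measurement divided by that of the vehicle-treated control group.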

[1] = dose: 12.5 mg/kg/injection, schedule: Q01DX005 (ip), vehicle: saline with Tween-80
[2] = dose: 25.0 mg/kg/injection, schedule: Q01DX005 (ip), vehicle: saline with Tween-80
[3] = dose: 50.0 mg/kg/injection, schedule: Q01DX005 (ip), vehicle: saline with Tween-80
[4] = dose: 100.0 mg/kg/injection, schedule: Q01DX005 (ip), vehicle: saline with Tween-80
[5] = dose: 200.0 mg/kg/injection, schedule: Q01DX005 (ip), vehicle: saline with Tween-80
[6] = dose: 12.5 mg/kg/injection, schedule: Q01DX005 (ip), vehicle: saline
[7] = dose: 25.0 mg/kg/injection, schedule: Q01DX005 (ip), vehicle: saline
[8] = dose: 50.0 mg/kg/injection, schedule: Q01DX005 (ip), vehicle: saline
[9] = dose: 60.0 mg/kg/injection, schedule: Q01DX005 (ip), vehicle: saline with Tween-80
[10] = dose: 120.0 mg/kg/injection, schedule: Q01DX005 (ip), vehicle: saline with Tween-80
[11] = dose: 240.0 mg/kg/injection, schedule: Q01DX005 (ip), vehicle: saline with Tween-80
[12] = dose: 50.0 mg/kg/injection, schedule: Q01DX005 (ip), vehicle: Klucel (hydroxypropylcellulose) (HPC)
[13] = dose: 100.0 mg/kg/injection, schedule: Q01DX005 (ip), vehicle: Klucel (hydroxypropylcellulose) (HPC)
[14] = dose: 200.0 mg/kg/injection, schedule: Q01DX005 (ip), vehicle: Klucel (hydroxypropylcellulose) (HPC)
[15] = dose: 50.0 mg/kg/injection, schedule: Q01DX009 (ip), vehicle: Klucel (hydroxypropylcellulose) (HPC)
[16] = dose: 100.0 mg/kg/injection, schedule: Q01DX009 (ip), vehicle: Klucel (hydroxypropylcellulose) (HPC)
[17] = dose: 200.0 mg/kg/injection, schedule: Q01DX009 (ip), vehicle: Klucel (hydroxypropylcellulose) (HPC)
[18] = dose: 100.0 mg/kg/injection, schedule: Q01DX009 (ip), vehicle: saline with Tween-80
[19] = dose: 200.0 mg/kg/injection, schedule: Q01DX009 (ip), vehicle: saline with Tween-80
[20] = dose: 100.0 mg/kg/injection, schedule: Q04DX003 (ip), vehicle: saline with Tween-80
[21] = dose: 200.0 mg/kg/injection, schedule: Q04DX003 (ip), vehicle: saline with Tween-80
[22] = dose: 400.0 mg/kg/injection, schedule: Q04DX003 (ip), vehicle: saline with Tween-80
[23] = dose: 60.0 mg/kg/injection, schedule: Q01DX005 (ip), vehicle: Klucel (hydroxypropylcellulose) (HPC)
[24] = dose: 120.0 mg/kg/injection, schedule: Q01DX005 (ip), vehicle: Klucel (hydroxypropylcellulose) (HPC)
[25] = dose: 240.0 mg/kg/injection, schedule: Q01DX005 (ip), vehicle: Klucel (hydroxypropylcellulose) (HPC)
[26] = dose: 50.0 mg/kg/injection, schedule: Q01DX009 (ip), vehicle: saline
[27] = dose: 100.0 mg/kg/injection, schedule: Q01DX009 (ip), vehicle: saline
[28] = dose: 200.0 mg/kg/injection, schedule: Q01DX009 (ip), vehicle: saline

SMILES: NC(Cc1cnc[nH]1)C(=O)NC(CO)C(=O)O (stereo not drawn) (H-His-Ser-OH; configuration not given here)
- T/C (dose: 60.0 mg/kg/injection, schedule: Q01DX005 (ip), vehicle: saline): 96 % of control
- T/C (dose: 120.0 mg/kg/injection, schedule: Q01DX005 (ip), vehicle: saline): 99 % of control
- T/C (dose: 240.0 mg/kg/injection, schedule: Q01DX005 (ip), vehicle: saline): 100 % of control

SMILES: Cc1cccc(/C=N/Nc2cc(C)c3ccccc3n2)n1
- T/C [1]: 100 % of control
- T/C [2]: 93 % of control
- T/C [3]: 101 % of control and 104 % of control

SMILES: COC1=C(c2c[nH]c3ccc(CC=C(C)C)cc23)C(=O)C(OC)=C(c2c[nH]c3ccc(CC=C(C)C)cc23)C1=O
- T/C [3]: 89 % of control
- T/C [4]: 89 % of control
- T/C [5]: 94 % of control

SMILES: CCCCN(CCCC)CC(O)c1ccc(F)c2ccccc12 (configuration not stated)
- T/C [6]: 96 % of control
- T/C [7]: 105 % of control
- T/C [3]: 113 % of control
- T/C [8]: 99 % of control
- T/C [4]: 97 % of control

SMILES: Cc1cccc(-c2nnc(N)o2)c1[N+](=O)[O-]
- T/C [9]: 108 % of control
- T/C [10]: 108 % of control
- T/C [11]: 101 % of control

SMILES: CN(C)CCN(Cc1ccco1)c1ccccn1
- T/C [1]: 92 % of control
- T/C [6]: 96 % of control and 98 % of control
- T/C [2]: 100 % of control
- T/C [7]: 96 % of control and 99 % of control
- T/C [8]: 102 % of control [middle of 4 runs]

SMILES: CC(=O)On1nnc2ccccc2c1=O
- T/C (dose: 6.25 mg/kg/injection, schedule: Q01DX009 (ip), vehicle: distilled water + Tween-80): 97 % of control
- T/C (dose: 12.5 mg/kg/injection, schedule: Q01DX009 (ip), vehicle: distilled water + Tween-80): 100 % of control
- T/C (dose: 25.0 mg/kg/injection, schedule: Q01DX009 (ip), vehicle: distilled water + Tween-80): 97 % of control

SMILES: O=c1c2sc3ccccc3c2ncn1CN1CCOCC1
- T/C [12]: 112 % of control
- T/C [13]: 121 % of control
- T/C [14]: 118 % of control

SMILES: O=C1CC2(CCCC2)CC(=O)N1c1ccc(O)c(CN2CCCCC2)c1
- T/C [15]: 105 % of control
- T/C [16]: 100 % of control
- T/C [17]: 102 % of control

SMILES: CCC(Nc1nncs1)Nc1nncs1
- T/C [12]: 100 % of control
- T/C [13]: 99 % of control
- T/C [14]: 98 % of control

SMILES: CC1(CCl)Nc2ccccc2C(=O)N1c1ccccc1 (configuration not stated)
- T/C (dose: 50.0 mg/kg/injection, schedule: Q01DX009 (ip), vehicle: saline with Tween-80): 99 % of control
- T/C [18]: 97 % of control
- T/C [19]: 88 % of control

SMILES: C=C(OC(=O)CN(C)C)c1ccccc1
- T/C [20]: 98 % of control
- T/C [21]: 100 % of control
- T/C [22]: 94 % of control

SMILES: Cc1ccc2oc(C(=O)Nc3nnc(-c4ccccc4)s3)cc(=O)c2c1
- T/C [3]: 96 % of control
- T/C [4]: 94 % of control
- T/C [5]: 94 % of control

SMILES: O=C(O)c1cc2ccc3cccc4ccc(c1)c2c34
- T/C [3]: 96 % of control
- T/C [4]: 102 % of control

SMILES: CCc1cccc(CC)c1N1C(=O)C(=O)C(C(C)=O)C1=O (configuration not stated)
- T/C [2]: 101 % of control
- T/C [3]: 99 % of control and 101 % of control
- T/C [4]: 101 % of control
- T/C [5]: 89 % of control

SMILES: Cc1nn(-c2ccccc2)c(=O)n2c1nc1ccccc12
- T/C [23]: 99 % of control
- T/C [24]: 97 % of control
- T/C [25]: 91 % of control

SMILES: CCc1cccc(CC)c1N1C(=O)C2=C(SCCCS2)C1=O
- T/C [26]: 98 % of control
- T/C [27]: 102 % of control
- T/C [28]: 107 % of control

SMILES: O=C1c2ccccc2OCC1/C=N/O (configuration not stated)
- T/C [9]: 95 % of control
- T/C [10]: 103 % of control
- T/C [11]: 101 % of control

SMILES: COc1ccc(C=C2C=C(C(C)(C)C)C(=O)C(C(C)(C)C)=C2)cc1
- T/C (dose: 50.0 mg/kg/injection, schedule: Q01DX005 (ip), vehicle: distilled water + alcohol): 108 % of control
- T/C (dose: 100.0 mg/kg/injection, schedule: Q01DX005 (ip), vehicle: distilled water + alcohol): 96 % of control
- T/C (dose: 200.0 mg/kg/injection, schedule: Q01DX005 (ip), vehicle: distilled water + alcohol): 108 % of control

SMILES: CCOC(=O)Nc1cc2c(c(N)n1)N=C(c1ccc(Cl)cc1Cl)CN2
- T/C [1]: 157 % of control
- T/C [2]: 90 % of control

SMILES: NC12CCC(N)(c3ccccc31)c1ccccc12
- T/C [23]: 93 % of control
- T/C [24]: 98 % of control
- T/C [25]: 98 % of control

SMILES: O=c1c2ccccc2sc2c1c(N(CCO)CCO)cc1ccccc12
- T/C (dose: 25.0 mg/kg/injection, schedule: Q01DX005 (ip), vehicle: distilled water + Tween-80): 102 % of control
- T/C (dose: 50.0 mg/kg/injection, schedule: Q01DX005 (ip), vehicle: distilled water + Tween-80): 97 % of control
- T/C (dose: 100.0 mg/kg/injection, schedule: Q01DX005 (ip), vehicle: distilled water + Tween-80): 92 % of control

SMILES: CC(=O)N/C(=C/c1ccccc1)C(=O)N1CCCC1C(=O)O (configuration not stated)
- T/C (dose: 12.5 mg/kg/injection, schedule: Q01DX009 (ip), vehicle: saline): 105 % of control
- T/C (dose: 25.0 mg/kg/injection, schedule: Q01DX009 (ip), vehicle: saline): 104 % of control
- T/C [26]: 96 % of control

SMILES: CC1=NN(C(=O)c2cccnc2)C(=O)C1N=Nc1ccc(S(=O)(=O)N=C(N)N)cc1 (configuration not stated)
- T/C [20]: 91 % of control
- T/C [21]: 92 % of control
- T/C [22]: 88 % of control

SMILES: Cn1c(=O)c2nc3n(c2n(C)c1=O)CCC(C)(c1ccccc1)O3 (configuration not stated)
- T/C [9]: 96 % of control
- T/C [10]: 91 % of control
- T/C [11]: 91 % of control

SMILES: O=C(CN1CCOCC1)Nc1cccc(C(F)(F)F)c1
- T/C [18]: 110 % of control
- T/C [19]: 100 % of control
- T/C (dose: 400.0 mg/kg/injection, schedule: Q01DX009 (ip), vehicle: saline with Tween-80): 110 % of control

SMILES: COc1cc2c(N)nc(N3CCN(C(=O)OCC(C)(C)O)CC3)nc2c(OC)c1OC
- T/C (dose: 50.0 mg/kg/injection, schedule: Q01DX005 (ip), vehicle: suspension in saline): 95 % of control
- T/C (dose: 100.0 mg/kg/injection, schedule: Q01DX005 (ip), vehicle: suspension in saline): 100 % of control
- T/C (dose: 200.0 mg/kg/injection, schedule: Q01DX005 (ip), vehicle: suspension in saline): 113 % of control

SMILES: CCOC(=O)C1(CO)C(=O)Nc2ccccc21 (configuration not stated)
- T/C [15]: 110 % of control
- T/C [16]: 106 % of control
- T/C [17]: 107 % of control

SMILES: O=C(OCC(Cl)(Cl)Cl)N1C2C3OC3C(C3OC32)N1C(=O)OCC(Cl)(Cl)Cl (configuration not stated)
- T/C (dose: 50.0 mg/kg/injection, schedule: Q01DX009 (ip), vehicle: suspension in saline): 99 % of control
- T/C (dose: 100.0 mg/kg/injection, schedule: Q01DX009 (ip), vehicle: suspension in saline): 92 % of control
- T/C (dose: 200.0 mg/kg/injection, schedule: Q01DX009 (ip), vehicle: suspension in saline): 94 % of control

SMILES: CCCNC(=S)Nc1ncco1
- T/C [26]: 100 % of control
- T/C [27]: 96 % of control
- T/C [28]: 111 % of control

SMILES: OCCN=Cc1ccccc1O.OCCN=Cc1ccccc1O.[Cu]
- T/C [12]: 110 % of control

SMILES: CC(C)NCCCNC(=S)C(=S)NCCCNC(C)C
- T/C [12]: 100 % of control
- T/C [13]: 94 % of control

SMILES: COc1ccc([I+]c2cccc(Cl)c2)cc1Cl
- T/C (dose: 0.09 mg/kg/injection, schedule: Q01DX009 (ip), vehicle: saline with Tween-80): 106 % of control
- T/C (dose: 0.18 mg/kg/injection, schedule: Q01DX009 (ip), vehicle: saline with Tween-80): 112 % of control
- T/C (dose: 0.37 mg/kg/injection, schedule: Q01DX009 (ip), vehicle: saline with Tween-80): 102 % of control
- T/C (dose: 0.75 mg/kg/injection, schedule: Q01DX009 (ip), vehicle: saline with Tween-80): 122 % of control
- T/C (dose: 12.5 mg/kg/injection, schedule: Q01DX009 (ip), vehicle: saline with Tween-80): 150 % of control and 159 % of control
- T/C (dose: 25.0 mg/kg/injection, schedule: Q01DX009 (ip), vehicle: saline with Tween-80): 106 % of control and 112 % of control
